According to the NIST ThermoML archive (doi:10.1016/j.jct.2016.08.001):

Assay: xn = mol fraction of the nth substance listed
Conditions: 100 kPa, Liquid; for mass density: Vibrating tube method; for speed of sound: Frequency=3 MHz, Sing-around technique in a fixed-path interferometer

N#Cc1ccccc1 [benzonitrile] + CCOC(=O)OCC
Conditions	mass density, 303.15 K [kg/m3]	mass density, 308.15 K [kg/m3]	mass density, 313.15 K [kg/m3]	mass density, 318.15 K [kg/m3]	mass density, 323.15 K [kg/m3]	speed of sound, 308.15 K [m/s]	speed of sound, 313.15 K [m/s]	speed of sound, 318.15 K [m/s]	speed of sound, 323.15 K [m/s]
x2 = 0	995.9	991.4	986.9	982.5	977.9	1380.8	1363.6	1346.5	1329.5
x2 = 0.0854	994	989.5	984.9	980.4	975.8	1360.8	1343.2	1325.7	1308.3
x2 = 0.1886	991.9	987.2	982.5	977.9	973.2	1336.7	1318.7	1300.8	1282.9
x2 = 0.2618	990	985.3	980.5	975.8	971	1319.3	1301	1282.9	1264.9
x2 = 0.3642	987.2	982.3	977.4	972.5	967.6	1294.4	1275.9	1257.4	1239.3
x2 = 0.462	984.3	979.3	974.2	969.2	964.2	1270.6	1251.8	1233	1214.5
x2 = 0.5563	981.2	976.1	970.9	965.8	960.6	1247.4	1228.3	1209.3	1190.6
x2 = 0.6599	977.5	972.3	967	961.7	956.5	1221.8	1202.4	1183.2	1164.1
x2 = 0.7732	973.2	967.8	962.4	956.9	951.5	1193.5	1173.8	1154.3	1135
x2 = 0.8703	969.2	963.7	958.2	952.7	947.1	1169.1	1149.2	1129.5	1110
